According to patent publication US20250042876A1, “HERBICIDAL PYRAZOLE PYRIMIDINE COMPOUNDS” (SYNGENTA CROP PROTECTION AG, priority 2021, published 2025):

Columns and labels:
Assay type in all cases: in vivo
Details in all cases: 250 g/ha, evaluated after 13 days
[1] = test system: Amaranthus retoflexus (AMARE); assay: Post-emergence herbicidal test, glasshouse
Method: (§1) Seeds of a variety of test species are sown in standard soil in pots Amaranthus palmeri (AMAPA), Amaranthus retoflexus (AMARE), Setaria faberi (SETFA), Echinochloa crus-galli (ECHCG), Ipomoea hederacea (IPOHE)). After cultivation for one day (pre-emergence) or after 8 days cultivation (post-emergence) under controlled conditions in a glasshouse (at 24/16° C., day/night; 14 hours light; 65% humidity), the plants are sprayed with an aqueous spray solution derived from the formulation of the technical active ingredient in acetone/water (50:50) solution containing 0.5% Tween 20 (polyoxyethelyene sorbitan monolaurate, CAS RN 9005-64-5). Compounds are applied at 250 g/ha unless otherwise stated. The test plants are then grown in a glasshouse under controlled conditions in a glasshouse (at 24/16° C., day/night; 14 hours light; 65% humidity) and watered twice daily. After 13 days for pre and post-emergence, the test is evaluated for the percentage damage caused to the plant. The biological activities are shown in the following table on a five-point scale (5=81-100%; 4=61-80%; 3=41-60%; 2=21-40%; 1=0-20%).

Setaria faberi (SETFA) [2] = assay: Post-emergence herbicidal test, glasshouse
Method: as §1

[3] = test system: Echinochloa crus-galli (ECHCG); assay: Post-emergence herbicidal test, glasshouse
Method: as §1

[4] = test system: Ipomoea hederacea (IPOHE); assay: Post-emergence herbicidal test, glasshouse
Method: as §1

[5] = test system: Amaranthus retoflexus (AMARE); assay: Pre-emergence herbicidal test, glasshouse
Method: as §1

[6] = test system: Amaranthus palmeri (AMAPA); assay: Pre-emergence herbicidal test, glasshouse
Method: as §1

[7] = test system: Echinochloa crus-galli (ECHCG); assay: Pre-emergence herbicidal test, glasshouse
Method: as §1

[8] = test system: Ipomoea hederacea (IPOHE); assay: Pre-emergence herbicidal test, glasshouse
Method: as §1

[9] = test system: Amaranthus palmeri (AMAPA); assay: Post-emergence herbicidal test, glasshouse
Method: as §1

Setaria faberi (SETFA) [10] = assay: Pre-emergence herbicidal test, glasshouse
Method: as §1

Fc1cc(-n2nc(C(F)(F)F)cc2Cc2ncc(Cl)cn2)cnc1Cl [Compound 1.026, 5-chloro-2-[[2-(6-chloro-5-fluoro-3-pyridyl)-5-(trifluoromethyl)pyrazol-3-yl]methyl]pyrimidine]
AMARE percentage damage caused to the plant (five-point scale) [1]: 5 (5=81-100%)
SETFA percentage damage caused to the plant (five-point scale) (Setaria faberi (SETFA) [2]): 5 (5=81-100%)
ECHCG percentage damage caused to the plant (five-point scale) [3]: 5 (5=81-100%)
IPOHE percentage damage caused to the plant (five-point scale) [4]: 2 (2=21-40%)
AMARE percentage damage caused to the plant (five-point scale) [5]: 5 (5=81-100%)
AMAPA percentage damage caused to the plant (five-point scale) [6]: 5 (5=81-100%)
ECHCG percentage damage caused to the plant (five-point scale) [7]: 5 (5=81-100%)
IPOHE percentage damage caused to the plant (five-point scale) [8]: 5 (5=81-100%)

N#Cc1cc(Cc2ncc(Cl)cn2)n(-c2ccc(F)c(F)c2)n1 [Compound 1.025, 5-[(5-chloropyrimidin-2-yl)methyl]-1-(3,4-difluorophenyl)pyrazole-3-carbonitrile]
AMARE percentage damage caused to the plant (five-point scale) [1]: 5 (5=81-100%)
SETFA percentage damage caused to the plant (five-point scale) (Setaria faberi (SETFA) [2]): 5 (5=81-100%)
ECHCG percentage damage caused to the plant (five-point scale) [3]: 5 (5=81-100%)
IPOHE percentage damage caused to the plant (five-point scale) [4]: 4 (4=61-80%)
AMARE percentage damage caused to the plant (five-point scale) [5]: 5 (5=81-100%)
AMAPA percentage damage caused to the plant (five-point scale) [6]: 5 (5=81-100%)
ECHCG percentage damage caused to the plant (five-point scale) [7]: 5 (5=81-100%)
IPOHE percentage damage caused to the plant (five-point scale) [8]: 5 (5=81-100%)

COc1cnc(Cc2cc(C(F)(F)F)nn2-c2ccc(C(F)(F)F)cc2)nc1 [Compound 1.004]
AMARE percentage damage caused to the plant (five-point scale) [1]: 5 (5=81-100%)
SETFA percentage damage caused to the plant (five-point scale) (Setaria faberi (SETFA) [2]): 5 (5=81-100%)
AMAPA percentage damage caused to the plant (five-point scale) [9]: 5 (5=81-100%)
ECHCG percentage damage caused to the plant (five-point scale) [3]: 5 (5=81-100%)
IPOHE percentage damage caused to the plant (five-point scale) [4]: 4 (4=61-80%)
AMARE percentage damage caused to the plant (five-point scale) [5]: 5 (5=81-100%)
SETFA percentage damage caused to the plant (five-point scale) (Setaria faberi (SETFA) [10]): 5 (5=81-100%)
AMAPA percentage damage caused to the plant (five-point scale) [6]: 5 (5=81-100%)
ECHCG percentage damage caused to the plant (five-point scale) [7]: 5 (5=81-100%)
IPOHE percentage damage caused to the plant (five-point scale) [8]: 5 (5=81-100%)

FC(F)(F)c1ccc(-n2nc(C(F)(F)F)cc2Cc2ncc(Cl)cn2)cc1 [Compound 1.001, 5-chloro-2-[[5-(trifluoromethyl)-2-[4-(trifluoromethyl)phenyl]pyrazol-3-yl]methyl]pyrimidine]
AMARE percentage damage caused to the plant (five-point scale) [1]: 4 (4=61-80%)
SETFA percentage damage caused to the plant (five-point scale) (Setaria faberi (SETFA) [2]): 4 (4=61-80%)
AMAPA percentage damage caused to the plant (five-point scale) [9]: 4 (4=61-80%)
ECHCG percentage damage caused to the plant (five-point scale) [3]: 4 (4=61-80%)
IPOHE percentage damage caused to the plant (five-point scale) [4]: 4 (4=61-80%)
AMARE percentage damage caused to the plant (five-point scale) [5]: 5 (5=81-100%)
SETFA percentage damage caused to the plant (five-point scale) (Setaria faberi (SETFA) [10]): 5 (5=81-100%)
AMAPA percentage damage caused to the plant (five-point scale) [6]: 5 (5=81-100%)
ECHCG percentage damage caused to the plant (five-point scale) [7]: 5 (5=81-100%)
IPOHE percentage damage caused to the plant (five-point scale) [8]: 5 (5=81-100%)

Cc1ccc(-n2nc(C(F)(F)F)cc2Cc2ncc(Cl)cn2)cc1 [Compound 1.037, 5-chloro-2-[[2-(p-tolyl)-5-(trifluoromethyl)pyrazol-3-yl]methyl]pyrimidine]
AMARE percentage damage caused to the plant (five-point scale) [1]: 5 (5=81-100%)
SETFA percentage damage caused to the plant (five-point scale) (Setaria faberi (SETFA) [2]): 5 (5=81-100%)
ECHCG percentage damage caused to the plant (five-point scale) [3]: 4 (4=61-80%)
IPOHE percentage damage caused to the plant (five-point scale) [4]: 3 (3=41-60%)
AMARE percentage damage caused to the plant (five-point scale) [5]: 5 (5=81-100%)
SETFA percentage damage caused to the plant (five-point scale) (Setaria faberi (SETFA) [10]): 5 (5=81-100%)
AMAPA percentage damage caused to the plant (five-point scale) [6]: 5 (5=81-100%)
ECHCG percentage damage caused to the plant (five-point scale) [7]: 5 (5=81-100%)
IPOHE percentage damage caused to the plant (five-point scale) [8]: 1 (1=0-20%)

Fc1cnc(Cc2cc(C(F)(F)F)nn2-c2ccc(C(F)(F)F)cc2)nc1 [Compound 1.003]
AMARE percentage damage caused to the plant (five-point scale) [1]: 5 (5=81-100%)
SETFA percentage damage caused to the plant (five-point scale) (Setaria faberi (SETFA) [2]): 4 (4=61-80%)
AMAPA percentage damage caused to the plant (five-point scale) [9]: 5 (5=81-100%)
ECHCG percentage damage caused to the plant (five-point scale) [3]: 5 (5=81-100%)
IPOHE percentage damage caused to the plant (five-point scale) [4]: 5 (5=81-100%)
AMARE percentage damage caused to the plant (five-point scale) [5]: 5 (5=81-100%)
SETFA percentage damage caused to the plant (five-point scale) (Setaria faberi (SETFA) [10]): 5 (5=81-100%)
AMAPA percentage damage caused to the plant (five-point scale) [6]: 5 (5=81-100%)
ECHCG percentage damage caused to the plant (five-point scale) [7]: 5 (5=81-100%)
IPOHE percentage damage caused to the plant (five-point scale) [8]: 5 (5=81-100%)

FC(F)(F)c1ccc(-n2nc(C(F)(F)Cl)cc2Cc2ncc(Cl)cn2)cc1 [Compound 1.036]
AMARE percentage damage caused to the plant (five-point scale) [1]: 5 (5=81-100%)
SETFA percentage damage caused to the plant (five-point scale) (Setaria faberi (SETFA) [2]): 5 (5=81-100%)
ECHCG percentage damage caused to the plant (five-point scale) [3]: 5 (5=81-100%)
IPOHE percentage damage caused to the plant (five-point scale) [4]: 3 (3=41-60%)
AMARE percentage damage caused to the plant (five-point scale) [5]: 5 (5=81-100%)
SETFA percentage damage caused to the plant (five-point scale) (Setaria faberi (SETFA) [10]): 5 (5=81-100%)
AMAPA percentage damage caused to the plant (five-point scale) [6]: 5 (5=81-100%)
ECHCG percentage damage caused to the plant (five-point scale) [7]: 5 (5=81-100%)
IPOHE percentage damage caused to the plant (five-point scale) [8]: 5 (5=81-100%)

N#Cc1ccc(-n2nc(C(F)(F)F)cc2Cc2ncc(Cl)cn2)cc1 [Compound 1.007, 4-[5-[(5-chloropyrimidin-2-yl)methyl]-3-(trifluoromethyl)pyrazol-1-yl]benzonitrile]
AMARE percentage damage caused to the plant (five-point scale) [1]: 5 (5=81-100%)
SETFA percentage damage caused to the plant (five-point scale) (Setaria faberi (SETFA) [2]): 5 (5=81-100%)
AMAPA percentage damage caused to the plant (five-point scale) [9]: 5 (5=81-100%)
ECHCG percentage damage caused to the plant (five-point scale) [3]: 5 (5=81-100%)
IPOHE percentage damage caused to the plant (five-point scale) [4]: 3 (3=41-60%)
AMARE percentage damage caused to the plant (five-point scale) [5]: 5 (5=81-100%)
SETFA percentage damage caused to the plant (five-point scale) (Setaria faberi (SETFA) [10]): 5 (5=81-100%)
AMAPA percentage damage caused to the plant (five-point scale) [6]: 5 (5=81-100%)
ECHCG percentage damage caused to the plant (five-point scale) [7]: 5 (5=81-100%)
IPOHE percentage damage caused to the plant (five-point scale) [8]: 5 (5=81-100%)

FC(F)(F)c1ccc(-n2nc(C(F)(F)F)cc2Cc2ncc(Br)cn2)cc1 [Compound 1.002, 5-bromo-2-[[5-(trifluoromethyl)-2-[4-(trifluoromethyl)phenyl]pyrazol-3-yl]methyl]pyrimidine]
AMARE percentage damage caused to the plant (five-point scale) [1]: 4 (4=61-80%)
SETFA percentage damage caused to the plant (five-point scale) (Setaria faberi (SETFA) [2]): 4 (4=61-80%)
AMAPA percentage damage caused to the plant (five-point scale) [9]: 4 (4=61-80%)
ECHCG percentage damage caused to the plant (five-point scale) [3]: 5 (5=81-100%)
IPOHE percentage damage caused to the plant (five-point scale) [4]: 4 (4=61-80%)
AMARE percentage damage caused to the plant (five-point scale) [5]: 5 (5=81-100%)
SETFA percentage damage caused to the plant (five-point scale) (Setaria faberi (SETFA) [10]): 4 (4=61-80%)
AMAPA percentage damage caused to the plant (five-point scale) [6]: 5 (5=81-100%)
ECHCG percentage damage caused to the plant (five-point scale) [7]: 5 (5=81-100%)
IPOHE percentage damage caused to the plant (five-point scale) [8]: 5 (5=81-100%)

FC(F)(F)c1cc(Cc2ncc(Cl)cn2)n(-c2ccc(Cl)cc2)n1 [Compound 1.008]
AMARE percentage damage caused to the plant (five-point scale) [1]: 5 (5=81-100%)
SETFA percentage damage caused to the plant (five-point scale) (Setaria faberi (SETFA) [2]): 5 (5=81-100%)
AMAPA percentage damage caused to the plant (five-point scale) [9]: 5 (5=81-100%)
ECHCG percentage damage caused to the plant (five-point scale) [3]: 5 (5=81-100%)
IPOHE percentage damage caused to the plant (five-point scale) [4]: 3 (3=41-60%)
AMARE percentage damage caused to the plant (five-point scale) [5]: 5 (5=81-100%)
SETFA percentage damage caused to the plant (five-point scale) (Setaria faberi (SETFA) [10]): 5 (5=81-100%)
AMAPA percentage damage caused to the plant (five-point scale) [6]: 5 (5=81-100%)
ECHCG percentage damage caused to the plant (five-point scale) [7]: 5 (5=81-100%)
IPOHE percentage damage caused to the plant (five-point scale) [8]: 4 (4=61-80%)

Cc1cnc(Cc2cc(C(F)(F)F)nn2-c2ccc(C(F)(F)F)cc2)nc1 [Compound 1.011]
AMARE percentage damage caused to the plant (five-point scale) [1]: 5 (5=81-100%)
SETFA percentage damage caused to the plant (five-point scale) (Setaria faberi (SETFA) [2]): 5 (5=81-100%)
AMAPA percentage damage caused to the plant (five-point scale) [9]: 5 (5=81-100%)
ECHCG percentage damage caused to the plant (five-point scale) [3]: 5 (5=81-100%)
IPOHE percentage damage caused to the plant (five-point scale) [4]: 3 (3=41-60%)
AMARE percentage damage caused to the plant (five-point scale) [5]: 5 (5=81-100%)
SETFA percentage damage caused to the plant (five-point scale) (Setaria faberi (SETFA) [10]): 5 (5=81-100%)
AMAPA percentage damage caused to the plant (five-point scale) [6]: 5 (5=81-100%)
ECHCG percentage damage caused to the plant (five-point scale) [7]: 5 (5=81-100%)
IPOHE percentage damage caused to the plant (five-point scale) [8]: 5 (5=81-100%)

FC(F)c1cc(Cc2ncc(Cl)cn2)n(-c2ccc(C(F)(F)F)cc2)n1 [Compound 1.016]
AMARE percentage damage caused to the plant (five-point scale) [1]: 5 (5=81-100%)
SETFA percentage damage caused to the plant (five-point scale) (Setaria faberi (SETFA) [2]): 5 (5=81-100%)
AMAPA percentage damage caused to the plant (five-point scale) [9]: 5 (5=81-100%)
ECHCG percentage damage caused to the plant (five-point scale) [3]: 5 (5=81-100%)
IPOHE percentage damage caused to the plant (five-point scale) [4]: 3 (3=41-60%)
AMARE percentage damage caused to the plant (five-point scale) [5]: 5 (5=81-100%)
SETFA percentage damage caused to the plant (five-point scale) (Setaria faberi (SETFA) [10]): 5 (5=81-100%)
AMAPA percentage damage caused to the plant (five-point scale) [6]: 5 (5=81-100%)
ECHCG percentage damage caused to the plant (five-point scale) [7]: 5 (5=81-100%)
IPOHE percentage damage caused to the plant (five-point scale) [8]: 5 (5=81-100%)
